Source: patent US11897867B2, “6-phenyl-4,5-dihydropyridazin-3(2H)-one derivatives as PDE3A and PDE3B inhibitors for treating cancer” (Bayer Aktiengesellschaft, priority 2017, dated 2024)

Assays:
[1] = test system: HeLa cells (cervical cancer); assay: Cell proliferation measurement (Cell Titer Glo), HeLa; assay type: cell-based; settings: Homo sapiens, 72 h treatment, read-out: Anti-proliferation IC50 HeLa (Cervical cancer)
Method: (§1) The antiproliferative activity of the compounds of the general formula (I) was examined in vitro in human cancer cells. For this purpose, 1000 cells (or 500 HeLa cells) were plated in 384-well plates with appropriate growth medium and incubated at 37° C. overnight. After 24 h, the cells on the test plate were treated with the compounds of the general formula (I) as and incubated at 37° C. for 72 h. The compounds were added to the cells by means of an HP D300 digital dispenser in a 10 (or more)-step dilution series. As control, the cells were treated with vehicle (DMSO at 0.3% final concentration). After 72 h, the cells were treated with 20 μl/well of 50% CTG solution in PBS (Promega Cell Titer Glo (catalogue #G755B and G756B)) and incubated at room temperature for 10 min, and luminescence was measured by means of a VICTOR V (Perkin Elmer), in order to determine cell viability at the end of treatment. The percentage effect on cell growth and the IC50 derived therefrom were determined for each test substance using the values from untreated wells (=percent viability). The IC50 values were calculated using a 4-parameter fit.

human full length PDE3B = biological target: T1, human full length PDE3B (Homo sapiens, UniProt Q13370); assay: PDE3B enzyme inhibition (3H-cAMP Scintillation Proximity Assay); assay type: biochemical; settings: PDE3B cell extract from Sf9 cells, 60 min room temperature; read-out: Target IC50 PDE3B IC50
T1 construct: Sf9 cells overexpressing human full length PDE3B; purchased SB Drug Discovery, UK; host or cells: Sf9 cells (cell extract)
Method: The commercially available 3H-cAMP Scintillation Proximity Assay (SPA, Perkin Elmer) system was used for enzyme inhibition studies. For the determination of the in vitro effect of test substances on the PDE3B reactions 2 μl of the respective test compound solution in DMSO (serial dilutions) were placed in wells of microtiter plates (Isoplate-96/200W; Perkin Elmer). 50 μl of a dilution of PDE3B cell extract from Sf9 cells overexpressing human full length PDE3B (SB Drug Discovery, UK) in buffer A (50 mM Tris/HCl pH 7.5, 8.3 mM MgCl2, 1.7 mM EDTA, 0.2% BSA) was added. The dilution of the PDE3B cell extract was chosen such that the reaction kinetics was linear and less than 70% of the substrate was consumed (typical dilution 1:6000). The reaction was started by addition of 50 μl (0.025 μCi) of 1:2000 in buffer A w/o BSA diluted substrate [8-3H] adenosine 3′,5′-cyclic phosphate (1 μCi/μl; Perkin Elmer). After incubation at room temperature for 60 min, the reaction was stopped by addition of 25 μl of a suspension containing 18 mg/ml yttrium scintillation proximity beads (Perkin Elmer) in water. The microtiter plates were sealed and measured in a Microbeta scintillation counter (PerkinElmer Wallac). IC50 values were determined from sigmoidal curves by plotting percentage PDE3B activity vs log compound concentration.

human full length PDE3A = biological target: T2, human full length PDE3A (Homo sapiens, UniProt Q14432); assay: PDE3A enzyme inhibition (3H-cAMP Scintillation Proximity Assay); assay type: biochemical; settings: PDE3A cell extract from Sf9 cells, 60 min room temperature; read-out: Target IC50 PDE3A IC50
T2 construct: Sf9 cells overexpressing human full length PDE3A; purchased SB Drug Discovery, UK; host or cells: Sf9 cells (cell extract)
Method: The commercially available 3H-cAMP Scintillation Proximity Assay (SPA, Perkin Elmer) system was used for enzyme inhibition studies. For the determination of the in vitro effect of test substances on the PDE3A reactions 2 μl of the respective test compound solution in DMSO (serial dilutions) were is placed in wells of microtiter plates (Isoplate-96/200W; Perkin Elmer). 50 μl of a dilution of PDE3A cell extract from Sf9 cells overexpressing human full length PDE3A (SB Drug Discovery, UK) in buffer A (50 mM Tris/HCl pH 7.5, 8.3 mM MgCl2, 1.7 mM EDTA, 0.2% BSA) was added. The dilution of the PDE3A cell extract was chosen such that the reaction kinetics was linear and less than 70% of the substrate was consumed (typical dilution 1:5000). The reaction was started by addition of 50 μl (0.025 μCi) of 1:2000 in buffer A w/o BSA diluted substrate [8-3H] adenosine 3′,5′-cyclic phosphate (1 μCi/μl; Perkin Elmer). After incubation at room temperature for 60 min, the reaction was stopped by addition of 25 μl of a suspension containing 18 mg/ml yttrium scintillation proximity beads (Perkin Elmer) in water. The microtiter plates were sealed and measured in a Microbeta scintillation counter (PerkinElmer Wallac). IC50 values were determined from sigmoidal curves by plotting percentage PDE3A activity vs log compound concentration.

SK-MEL-3 (melanoma) = assay: Cell proliferation measurement (Cell Titer Glo), SK-MEL-3; assay type: cell-based; settings: Homo sapiens, SK-MEL3, SK-MEL-3 cells, 72 h treatment, read-out: Anti-proliferation IC50 SK-MEL-3 (melanoma)
Method: as §1

T1 sequence (Q13370 whole entry): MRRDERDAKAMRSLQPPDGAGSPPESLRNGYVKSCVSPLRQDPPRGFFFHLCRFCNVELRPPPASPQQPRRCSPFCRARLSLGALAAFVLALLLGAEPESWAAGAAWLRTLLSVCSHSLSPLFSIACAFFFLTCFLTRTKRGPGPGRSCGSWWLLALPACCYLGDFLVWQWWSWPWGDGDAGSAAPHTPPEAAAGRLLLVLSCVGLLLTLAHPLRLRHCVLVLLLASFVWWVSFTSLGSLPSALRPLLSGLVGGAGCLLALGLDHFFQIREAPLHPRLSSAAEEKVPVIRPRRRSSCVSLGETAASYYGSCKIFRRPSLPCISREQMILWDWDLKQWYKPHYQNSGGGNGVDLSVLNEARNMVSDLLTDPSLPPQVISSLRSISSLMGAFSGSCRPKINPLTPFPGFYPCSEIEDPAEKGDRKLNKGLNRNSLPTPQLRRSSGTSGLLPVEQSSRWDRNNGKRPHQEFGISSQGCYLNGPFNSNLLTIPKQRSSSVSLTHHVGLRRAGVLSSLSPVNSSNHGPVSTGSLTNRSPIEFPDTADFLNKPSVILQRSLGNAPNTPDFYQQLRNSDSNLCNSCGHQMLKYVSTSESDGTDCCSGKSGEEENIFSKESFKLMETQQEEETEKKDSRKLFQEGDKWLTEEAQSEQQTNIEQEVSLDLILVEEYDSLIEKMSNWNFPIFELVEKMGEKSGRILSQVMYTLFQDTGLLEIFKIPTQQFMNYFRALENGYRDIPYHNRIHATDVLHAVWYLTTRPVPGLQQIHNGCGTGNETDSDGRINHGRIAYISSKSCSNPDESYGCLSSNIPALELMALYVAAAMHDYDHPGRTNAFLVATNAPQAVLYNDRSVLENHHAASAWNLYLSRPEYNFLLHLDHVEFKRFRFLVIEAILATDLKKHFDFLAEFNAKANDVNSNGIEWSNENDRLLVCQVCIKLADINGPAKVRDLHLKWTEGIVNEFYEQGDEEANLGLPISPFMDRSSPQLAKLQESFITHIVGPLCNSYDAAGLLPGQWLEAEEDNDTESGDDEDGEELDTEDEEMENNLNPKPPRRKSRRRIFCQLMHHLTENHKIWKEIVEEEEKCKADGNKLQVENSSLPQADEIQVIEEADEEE
T2 sequence (Q14432 whole entry): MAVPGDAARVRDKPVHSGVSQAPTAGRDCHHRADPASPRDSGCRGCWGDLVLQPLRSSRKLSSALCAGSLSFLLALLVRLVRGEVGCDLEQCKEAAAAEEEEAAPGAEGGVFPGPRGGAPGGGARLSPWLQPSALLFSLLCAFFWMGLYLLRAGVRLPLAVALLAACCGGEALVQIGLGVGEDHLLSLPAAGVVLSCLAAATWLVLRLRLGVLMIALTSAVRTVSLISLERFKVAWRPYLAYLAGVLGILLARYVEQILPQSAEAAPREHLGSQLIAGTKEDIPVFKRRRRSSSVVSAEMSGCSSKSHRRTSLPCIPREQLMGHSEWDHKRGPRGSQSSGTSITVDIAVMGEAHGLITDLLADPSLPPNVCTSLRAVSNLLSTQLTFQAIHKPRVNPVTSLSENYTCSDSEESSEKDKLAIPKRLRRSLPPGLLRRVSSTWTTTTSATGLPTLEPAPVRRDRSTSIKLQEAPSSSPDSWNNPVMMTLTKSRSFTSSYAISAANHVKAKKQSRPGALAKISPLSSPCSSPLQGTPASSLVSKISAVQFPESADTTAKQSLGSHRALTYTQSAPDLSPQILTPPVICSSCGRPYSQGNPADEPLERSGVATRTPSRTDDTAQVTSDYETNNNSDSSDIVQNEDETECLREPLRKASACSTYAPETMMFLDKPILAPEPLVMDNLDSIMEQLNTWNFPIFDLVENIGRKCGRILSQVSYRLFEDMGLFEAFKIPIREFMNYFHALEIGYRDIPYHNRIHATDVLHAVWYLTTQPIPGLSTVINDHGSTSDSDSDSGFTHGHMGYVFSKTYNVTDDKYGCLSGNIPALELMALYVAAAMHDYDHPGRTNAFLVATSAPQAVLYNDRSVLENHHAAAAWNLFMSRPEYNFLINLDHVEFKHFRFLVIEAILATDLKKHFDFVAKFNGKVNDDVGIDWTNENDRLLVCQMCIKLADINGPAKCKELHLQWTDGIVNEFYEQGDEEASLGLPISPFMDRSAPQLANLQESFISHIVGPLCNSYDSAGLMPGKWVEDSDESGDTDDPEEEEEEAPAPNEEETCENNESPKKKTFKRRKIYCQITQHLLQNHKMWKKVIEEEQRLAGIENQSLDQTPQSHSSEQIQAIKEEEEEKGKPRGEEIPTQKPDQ

SMILES | IC50 [1] [µM] | IC50 (human full length PDE3B) [µM] | IC50 (human full length PDE3A) [µM] | IC50 (SK-MEL-3 (melanoma)) [µM]
Cc1cc(-c2ccc(C3=NNC(=O)CC3)cc2F)ccc1F [Example 84, 6-(2,4′-difluoro-3′-methyl[1,1′-biphenyl]-4-yl)-4,5-dihydropyridazin-3(2H)-one] | 0.0161 | 0.22 | 0.27 | 0.041
O=C1CCC(c2ccc(-c3cncc(C(F)(F)F)c3)c(F)c2)=NN1 [Example 29, 6-{3-fluoro-4-[5-(trifluoromethyl)pyridin-3-yl]phenyl}-4,5-dihydropyridazin-3(2H)-one] | 0.0864 | 0.11 | 0.16 | > 0.1
O=C1CCC(c2ccc(-c3ccccc3OC(F)(F)F)c(F)c2)=NN1 [Example 44, 6-[2-fluoro-2′-(trifluoromethoxy)[1,1′-biphenyl]-4-yl]-4,5-dihydropyridazin-3(2H)-one] | 0.0179 | 0.095 | 0.18 | 0.0345
COc1ccc(OC)c(-c2ccc(C3=NNC(=O)CC3)cc2F)c1 [Example 41, 6-(2-fluoro-2′,5′-dimethoxy[1,1′-biphenyl]-4-yl)-4,5-dihydropyridazin-3(2H)-one] | 0.0516 | 0.1 | 0.15 | 0.0688
CCc1ccccc1-c1ccc(C2=NNC(=O)CC2)cc1F [Example 81, 6-(2′-ethyl-2-fluoro[1,1′-biphenyl]-4-yl)-4,5-dihydropyridazin-3(2H)-one] | 0.0139 | 0.23 | 0.37 | 0.0263
Cc1cc(-c2ccc(C3=NNC(=O)CC3)cc2C)ccc1F [Example 119, 6-(4′-fluoro-2,3′-dimethyl[1,1′-biphenyl]-4-yl)-4,5-dihydropyridazin-3(2H)-one] | 0.0658 | 0.29 | 0.29 | > 0.1
Cc1ncc(-c2ccc(C3=NNC(=O)CC3)cc2C)cn1 [Example 92, 6-[3-methyl-4-(2-methylpyrimidin-5-yl)phenyl]-4,5-dihydropyridazin-3(2H)-one] | 0.0423 | 0.088 | 0.061 | > 0.1
Cc1cc(C2=NNC(=O)CC2)ccc1C1=CCOCC1 [Example 7, 6-[4-(3,6-Dihydro-2H-pyran-4-yl)-3-methylphenyl]-4,5-dihydropyridazin-3(2H)-one] | 0.0556 | 0.035 | 0.2 | > 0.1
O=C1CCC(c2ccc(-c3ccncc3)c(F)c2)=NN1 [Example 30, 6-[3-fluoro-4-(pyridin-4-yl)phenyl]-4,5-dihydropyridazin-3(2H)-one] | 0.00966 | 0.031 | 0.033 | 0.0142
Cc1ncccc1-c1ccc(C2=NNC(=O)CC2)cc1F [Example 33, 6-[3-fluoro-4-(2-methylpyridin-3-yl)phenyl]-4,5-dihydropyridazin-3(2H)-one] | 0.0144 | 0.067 | 0.066 | 0.0248
O=C1CCC(c2cc(F)c(N3CCC(F)(F)CC3)c(F)c2)=NN1 [Example 12, 6-[4-(4,4-Difluoropiperidin-1-yl)-3,5-difluorophenyl]-4,5-dihydropyridazin-3(2H)-one] | 0.00548 | 0.062 | 0.11 | 0.0114
Cc1ccc(-c2ccc(C3=NNC(=O)CC3)cc2F)cc1 [Example 87, 6-(2-fluoro-4′-methyl[1,1′-biphenyl]-4-yl)-4,5-dihydropyridazin-3(2H)-one] | 0.00372 | 0.215 | 0.385 | 0.00815
Cc1ccc(-c2ccc(C3=NNC(=O)CC3)cc2F)cc1C [Example 35, 6-(2-fluoro-3′,4′-dimethyl[1,1′-biphenyl]-4-yl)-4,5-dihydropyridazin-3(2H)-one] | 0.0636 | 0.69 | 0.82 | > 0.1
O=C1CCC(c2ccc(-c3cccc(O)c3)c(F)c2)=NN1 [Example 49, 6-(2-fluoro-3′-hydroxy[1,1′-biphenyl]-4-yl)-4,5-dihydropyridazin-3(2H)-one] | 0.0406 | 0.041 | 0.063 | 0.00888
Cc1ccc(-c2ccc(C3=NNC(=O)CC3)cc2F)cc1F [Example 58, 6-(2,3′-difluoro-4′-methyl[1,1′-biphenyl]-4-yl)-4,5-dihydropyridazin-3(2H)-one] | 0.00469 | 0.083 | 0.25 | 0.0077
O=C1CCC(c2ccc(-c3ccccc3C(F)(F)F)c(F)c2)=NN1 [Example 61, 6-[2-fluoro-2′-(trifluoromethyl)[1,1′-biphenyl]-4-yl]-4,5-dihydropyridazin-3(2H)-one] | 0.0195 | – | – | 0.0376
Cc1cc(C2=NNC(=O)CC2)ccc1-c1ccnc(N)c1 [Example 90, 6-[4-(2-aminopyridin-4-yl)-3-methylphenyl]-4,5-dihydropyridazin-3(2H)-one] | 0.016 | 0.065 | 0.047 | > 0.1
Cc1ccc(-c2ccc(C3=NNC(=O)CC3)cc2F)cn1 [Example 34, 6-[3-fluoro-4-(6-methylpyridin-3-yl)phenyl]-4,5-dihydropyridazin-3(2H)-one] | 0.00723 | 0.05 | 0.057 | 0.00988
Cc1cc(C2=NNC(=O)CC2)ccc1Cl [Example 11, 6-(4-Chloro-3-methylphenyl)-4,5-dihydropyridazin-3(2H)-one] | 0.0414 | 0.71 | 0.66 | 0.0703
O=C1CCC(c2ccc(N3CCOCC3)c(C(F)(F)F)c2)=NN1 [Example 126, 6-[4-(Morpholin-4-yl)-3-(trifluoromethyl)phenyl]-4,5-dihydropyridazin-3(2H)-one] | 0.00529 | 0.095 | 0.059 | 0.00706
COc1cccc(-c2ccc(C3=NNC(=O)CC3)cc2F)c1OC [Example 78, 6-(2-fluoro-2′,3′-dimethoxy[1,1′-biphenyl]-4-yl)-4,5-dihydropyridazin-3(2H)-one] | 0.0533 | 0.6 | 0.32 | 0.069
O=C1CCC(c2ccc(-c3ccccc3F)c(F)c2)=NN1 [Example 60, 6-(2,2′-difluoro[1,1′-biphenyl]-4-yl)-4,5-dihydropyridazin-3(2H)-one] | 0.00208 | 0.047 | 0.096 | 0.0042
O=C1CCC(c2ccc(-c3ccc(F)nc3)c(F)c2)=NN1 [Example 71, 6-[3-fluoro-4-(6-fluoropyridin-3-yl)phenyl]-4,5-dihydropyridazin-3(2H)-one] | 0.00782 | 0.12 | 0.12 | 0.0116
Nc1cc(-c2ccc(C3=NNC(=O)CC3)cc2F)ccn1 [Example 28, 6-[4-(2-aminopyridin-4-yl)-3-fluorophenyl]-4,5-dihydropyridazin-3(2H)-one] | 0.0602 | 0.089 | 0.1 | > 0.1
